The test system of this data set is cancer cells. Briefly: MTT cytotoxic assay of esterification products (Cytotoxicity activity). Format: cell-based, human. From the text: The peaks, fractions and compounds are selected according to the activities of times studies and the changes of peaks. Selecting the HPLC fractions for isolation is according to the cytotoxic activity of the reaction product obtained at a specific time. The compounds having strong to weak activities are selected and isolated. Selecting the HPLC fractions for isolation may be according to the cytotoxic activity of times studies and the change of peaks. The anti-cancer activities are the MTT studies of bone (U2OS), lung (H460), bladder (HTB-9), ovary (ES2), colon (HCT116), pancreas (Capan), ovary(OVCAR3), prostate (DU145), skin (SK-Mel-5), mouth (KB), kidney (A498), breast (MCF-7), liver (HepG2), brain (T98G), leukemia (K562), cervix (HeLa).
Esterification of compound (A), (B), (C), (D1), (D2), (E), (F), (G), (H1), (H2), E4A, E4A2Y, (P1), P(2), terpene, isoprene, triterpenes, hydroxylated triterpenes, with acyl halide, wherein the halide comprise chloride, bromide, fluoride and iodide, wherein the acyl halide comprise acyl chloride, wherein acyl chloride comprise tigloyl chloride, angeloyl chloride, acetyl chloride, crotonoyl chloride, 3,3-Dimethylacryloyl chloride, senecioyl chloride, cinnamoyl chloride, pentenoyl chloride, hexanoyl chloride, benzoyl chloride, ethylbutyryl chloride, propionyl chloride, 2-propenoyl chloride, isobutyryl chloride, butyryl chloride, (2E)-2-pentenoyl chloride, 4-Pentenoyl chloride, 5-hexenoyl chloride, heptanoyl chloride, octanoyl chloride, nonanoyl chloride, decanoyl chloride, Lauroyl chloride, myristoyl chloride, oleoyl chloride. The compounds vary in composition when the time or temperature of the reaction is changed. The peaks, fractions and compounds are selected according to the activities of times studies and the changes of peaks. The compounds having strong to weak activities are selected and isolated. The anti-cancer activities (Cytotoxic Assay) are the MTT studies of bone (U2OS), lung (H460), bladder(HTB-9), ovary (ES2), colon (HCT116), pancreas (Capan), ovary(OVCAR3), prostate (DU145), skin (SK-Mel-5), mouth (KB), kidney (A498), breast (MCF-7), liver (HepG2), brain (T98G), leukemia (K562), cervix (HeLa). The active esterification products are purified with HPLC. The reaction product of mixtures and individual compounds are tested with MTT Cytotoxic Assay. Details of method are in Experiment 3 of the present application. A second esterification of compound can be selected from the above experiment results to produce new active compounds. A partial esterification compound is selected from the above experiments to perform a second or repeated with a third esterification with different acyl chloride in order to produce new active compounds with the experiments in the present application.
Method: 40 mg of triterpene core (fraction IV) was dissolved in 1 ml pyridine in a 50 ml tube. Reaction is started by adding 0.2 ml of acyl chloride (Tigloyl chloride, angeloyl chloride, Acetyl chloride, Crotonoyl chloride, 3,3-Dimethylacryloyl chloride(senecioyl chloride), Cinnamoyl chloride, Pentenoyl chloride, Hexanoyl chloride, benzoyl chloride or Ethylbutyryl chloride). The mixture is stirred for 5 sec, 1 min, 2 min, 5 min, 10 min, 30 min, 1 hr, 2 hr, 18 hr, 2 days or 3 days at 0° C., 25° C. or 75° C. temperature. At the end of reaction, 5 ml of 2N HCl or 1 M NaHCO3 is added to the reaction mixture. The solution is then extracted 3 times with 10 ml of ethyl acetate which is then evaporated under vacuum and at 45C and lyophilization. The reaction product is dissolved in 80% acetonitrile - 0.005% Trifluoroacetic acid or DMSO; and was separated with HPLC. Selecting the HPLC fractions for isolation is according to the cytotoxic activity of the reaction product obtained at a specific reaction time. The active esterification products are purified with HPLC. The reaction product of mixtures and individual compounds are tested with MTT cytotoxic assay. Structures are determined with NMR. […]

The mark [1] stands for this setting: MTT cytotoxic assay, isolated esterification products of E4A.
[2] abbreviates: E4A esterified with Cinnamoyl chloride (Cin = Cinnamoyl), compounds isolated with HPLC.
Where [3] appears, read: esterification products isolated with HPLC, graded strong / moderate / weak.
Where [4] appears, read: E4A esterified with Acetyl chloride (Acy = Acetyl), compounds isolated with HPLC.

Regarding `CC(C)=CC(=O)OCC1(C)C(O)CCC2(C)C1CCC1(C)C2CC=C2C3CC(C)(C)C(O)C(OC(=O)C=C(C)C)C3(COC(=O)C=C(C)C)C(OC(=O)C=C(C)C)CC21C` (stereo not shown) [Compound B12], the Cytotoxicity activity entry under setting [1] is “weak”. Take `CC1(C)CC2C3=CCC4C5(C)CCC(O)C(C)(CO)C5CCC4(C)C3(C)CC(OC(=O)C=Cc3ccccc3)C2(COC(=O)C=Cc2ccccc2)C(O)C1O` (stereo not shown) [Compound J28]: the Cytotoxicity activity result under setting [2] was “moderate”. `CC=C(C)C(=O)OCC1(C)C(OC(=O)C(C)=CC)CCC2(C)C1CCC1(C)C2CC=C2C3CC(C)(C)C(OC(=O)C(C)=CC)C(O)C3(COC(=O)C(C)=CC)C(O)CC21C` (stereo not shown) [Compound A11]: under setting [1], the Cytotoxicity activity result is “weak”. In the case of `CC=C(C)C(=O)OCC1(C)C(O)CCC2(C)C1CCC1(C)C2CC=C2C3CC(C)(C)C(O)C(O)C3(COC(=O)CCCCC)C(O)CC21C` (stereo not shown) [Tig—Hex—1], the Cytotoxicity activity result under setting [3] is on record as “strong”. `C=CCCC(=O)OC1C(O)C(C)(C)CC2C3=CCC4C5(C)CCC(O)C(C)(COC(=O)C(C)=CC)C5CCC4(C)C3(C)CC(O)C21COC(=O)C(C)=CC` (stereo not shown) [Tig—R—Pen—3]: the Cytotoxicity activity result under setting [3] is on record as “moderate”. In the case of `CC(=O)OCC1(C)C(OC(C)=O)CCC2(C)C1CCC1(C)C2CC=C2C3CC(C)(C)C(OC(C)=O)C(OC(C)=O)C3(COC(C)=O)C(O)CC21C` (stereo not shown) [Compound H15], the Cytotoxicity activity result under setting [4] is given as “weak”.

As for `C=CCCC(=O)OCC12C(O)CC3(C)C(=CCC4C5(C)CCC(O)C(C)(CO)C5CCC43C)C1CC(C)(C)C(OC(=O)CCC=C)C2OC(=O)CCC=C` (stereo not shown) [Compound C20], under setting [1], the Cytotoxicity activity result is “moderate”. On the same count and under the same terms, next, `CCC(CC)C(=O)OCC12C(O)CC3(C)C(=CCC4C5(C)CCC(OC(=O)C(CC)CC)C(C)(CO)C5CCC43C)C1CC(C)(C)C(O)C2O` (stereo not shown) [Compound E27]: “moderate”. Regarding `CC=C(C)C(=O)OCC1(C)C(O)CCC2(C)C1CCC1(C)C2CC=C2C3CC(C)(C)C(OC(=O)C=C(C)C)C(O)C3(CO)C(O)CC21C` (stereo not shown) [Tig—Sen—5], where the note is “esterification products of E4A—Tig—N with senecioyl chloride”, the Cytotoxicity activity entry was “moderate”.

Consider `CC=C(C)C(=O)OCC1(C)C(OC(=O)CCCCC)CCC2(C)C1CCC1(C)C2CC=C2C3CC(C)(C)C(O)C(O)C3(COC(=O)CCCCC)C(O)CC21C` (stereo not shown) [Tig—Hex—4], for which the Cytotoxicity activity result under setting [3] is listed as “moderate”.

As for `CC=C(C)C(=O)OCC1(C)C(OC(=O)C=Cc2ccccc2)CCC2(C)C1CCC1(C)C2CC=C2C3CC(C)(C)C(O)C(O)C3(COC(=O)C(C)=CC)C(O)CC21C` (stereo not shown) [Tig—R—Cin—4], the Cytotoxicity activity result under setting [3] is on record as “moderate”.

As to `CC=C(C)C(=O)OCC1(C)C(O)CCC2(C)C1CCC1(C)C2CC=C2C3CC(C)(C)C(OC(=O)CCCCC)C(OC(=O)CCCCC)C3(COC(=O)C(C)=CC)C(O)CC21C` (stereo not shown) [Tig—R—Hex—1], under setting [3], the Cytotoxicity activity entry is “weak”. For the compound `CC=CC(=O)OCC12C(O)CC3(C)C(=CCC4C5(C)CCC(O)C(C)(CO)C5CCC43C)C1CC(C)(C)C(O)C2O` (stereo not shown) [Compound I2], the Cytotoxicity activity result (E4A esterified with Crotonoyl chloride (Cro = Crotonoyl), compounds isolated with HPLC) is listed as “moderate”.

For the compound `CC=C(C)C(=O)OCC1(C)C(OC(=O)C(C)=CC)CCC2(C)C1CCC1(C)C2CC=C2C3CC(C)(C)C(O)C(O)C3(COC(=O)C(C)=CC)C(O)CC21C` (stereo not shown) [Tig—Ang—4], under setting [3], the Cytotoxicity activity entry is listed as “moderate”.

Consider `CC=C(C)C(=O)OCC1(C)C(OC(=O)C=Cc2ccccc2)CCC2(C)C1CCC1(C)C2CC=C2C3CC(C)(C)C(O)C(OC(=O)C=Cc4ccccc4)C3(COC(=O)C(C)=CC)C(O)CC21C` (stereo not shown) [Tig—R—Cin—6], for which, under setting [3], the Cytotoxicity activity result is listed as “weak”. In the case of `CC=C(C)C(=O)OCC1(C)C(O)CCC2(C)C1CCC1(C)C2CC=C2C3CC(C)(C)C(OC(=O)C(C)=CC)C(OC(=O)C(C)=CC)C3(COC(=O)C(C)=CC)C(OC(=O)C(C)=CC)CC21C` (stereo not shown) [Compound A16], the Cytotoxicity activity result under setting [1] is listed as “weak”. As for `CC1(C)CC2C3=CCC4C5(C)CCC(O)C(C)(CO)C5CCC4(C)C3(C)CC(O)C2(COC(=O)C=Cc2ccccc2)C(OC(=O)C=Cc2ccccc2)C1OC(=O)C=Cc1ccccc1` (stereo not shown) [Compound J20], the Cytotoxicity activity entry under setting [2] is recorded as “moderate”. As for `CC(C)=CC(=O)OCC12C(O)CC3(C)C(=CCC4C5(C)CCC(O)C(C)(CO)C5CCC43C)C1CC(C)(C)C(OC(=O)C=C(C)C)C2OC(=O)C=C(C)C` (stereo not shown) [Compound B20], under setting [1], the Cytotoxicity activity result is “moderate”. `CC=CC(=O)OC1C(OC(=O)C=CC)C2(COC(=O)C(C)=CC)C(O)CC3(C)C(=CCC4C5(C)CCC(O)C(C)(COC(=O)C(C)=CC)C5CCC43C)C2CC1(C)C` (stereo not shown) [Tig—R—Cro—1]: the Cytotoxicity activity entry under setting [3] is listed as “weak”. Turning to `CC(C)=CC(=O)OCC1(C)C(OC(=O)C=C(C)C)CCC2(C)C1CCC1(C)C2CC=C2C3CC(C)(C)C(O)C(O)C3(COC(=O)C=C(C)C)C(O)CC21C` (stereo not shown) [Compound B6], under setting [1], the Cytotoxicity activity entry is reported as “moderate”. For the compound `CC(=O)OCC12C(OC(C)=O)CC3(C)C(=CCC4C5(C)CCC(O)C(C)(CO)C5CCC43C)C1CC(C)(C)C(O)C2O` (stereo not shown) [Compound H28], under setting [4], the Cytotoxicity activity result is “moderate”. `CC=CC(=O)OC1C(O)C2(COC(=O)C(C)=CC)C(O)CC3(C)C(=CCC4C5(C)CCC(OC(=O)C=CC)C(C)(COC(=O)C(C)=CC)C5CCC43C)C2CC1(C)C` (stereo not shown) [Tig—R—Cro—5]: the Cytotoxicity activity entry under setting [3] is given as “weak”.

`CC(=O)OC1C(OC(C)=O)C2(CO)C(O)CC3(C)C(=CCC4C5(C)CCC(OC(C)=O)C(C)(CO)C5CCC43C)C2CC1(C)C` (stereo not shown) [Compound H23]: the Cytotoxicity activity entry under setting [4] was “moderate”. As for `CC1(C)CC2C3=CCC4C5(C)CCC(O)C(C)(COC(=O)C=Cc6ccccc6)C5CCC4(C)C3(C)CC(O)C2(COC(=O)C=Cc2ccccc2)C(O)C1O` (stereo not shown) [Compound J3], the Cytotoxicity activity result under setting [2] is “strong”. As for `CCCCCC(=O)OCC1(C)C(O)CCC2(C)C1CCC1(C)C2CC=C2C3CC(C)(C)C(O)C(OC(=O)CCCCC)C3(CO)C(O)CC21C` (stereo not shown) [Compound D30], the Cytotoxicity activity entry under setting [1] is listed as “moderate”. Same read-out and setting: next, `CC=C(C)C(=O)OCC1(C)C(O)CCC2(C)C1CCC1(C)C2CC=C2C3CC(C)(C)C(OC(=O)C(C)=CC)C(OC(=O)C(C)=CC)C3(COC(=O)C(C)=CC)C(O)CC21C` (stereo not shown) [Compound A8]: “weak”.

`CC1(C)CC2C3=CCC4C5(C)CCC(OC(=O)c6ccccc6)C(C)(COC(=O)c6ccccc6)C5CCC4(C)C3(C)CC(OC(=O)c3ccccc3)C2(COC(=O)c2ccccc2)C(OC(=O)c2ccccc2)C1OC(=O)c1ccccc1` (stereo not shown) [Compound K19]: the Cytotoxicity activity result reads like this: (E4A esterified with 2-propenoyl chloride (Ppe = Propenoyl), compounds isolated with HPLC) “none”; (E4A esterified with Propionyl chloride (Ppi = Propionyl), compounds isolated with HPLC) “none”; (E4A esterified with benzoyl chloride (Ben = benzoyl), compounds isolated with HPLC) “none”; (esterification products of core compound E4A with (2E)-2-pentenoyl chloride (2pe = 2-pentenoyl)) “none”; (esterification products of core compound E4A with Butyryl chloride (But = Butyryl)) “none”; (esterification products of core compound E4A with Decanoyl chloride (Dec = Decanoyl)) “none”. For the same compound, the Cytotoxicity activity entry by setting is: (esterification products of core compound E4A with Isobutyryl chloride (Iso = Isobutyryl)) “none”; (esterification products of core compound E4A with Myristoyl chloride (Myr = Myristoyl)) “none”; (esterification products of core compound E4A with Octanoyl chloride (Oct = Octanoyl)) “none”. Take `CC=C(C)C(=O)OCC1(C)C(OC(=O)C(C)=CC)CCC2(C)C1CCC1(C)C2CC=C2C3CC(C)(C)C(OC(=O)C(C)=CC)C(OC(=O)C(C)=CC)C3(COC(=O)C(C)=CC)C(OC(=O)C(C)=CC)CC21C` (stereo not shown) [Compound A19]: the Cytotoxicity activity entry under setting [1] is on record as “none”. For `CC=C(C)C(=O)OCC1(C)C(O)CCC2(C)C1CCC1(C)C2CC=C2C3CC(C)(C)C(O)C(OC(=O)C(C)=CC)C3(CO)C(O)CC21C` (stereo not shown) [Compound A30], under setting [1], the Cytotoxicity activity result is “moderate”.

For the origin of these results see patent US20230340012A1, “NATURAL AND SYNTHETIC COMPOUNDS FOR TREATING CANCER AND OTHER DISEASES” (PACIFIC ARROW LIMITED, priority 2009, published 2023).
